Test [1] has as its target Mitogen-activated protein kinase kinase kinase kinase 4 (Homo sapiens) (UniProt O95819). As to the kind of experiment: Inhibition of human HGK at 1.82 nM by HotSpot assay relative to control.
The target of test [2] is T1, Myotonin-protein kinase (Homo sapiens) (UniProt Q09013).
T1 sequence (whole entry): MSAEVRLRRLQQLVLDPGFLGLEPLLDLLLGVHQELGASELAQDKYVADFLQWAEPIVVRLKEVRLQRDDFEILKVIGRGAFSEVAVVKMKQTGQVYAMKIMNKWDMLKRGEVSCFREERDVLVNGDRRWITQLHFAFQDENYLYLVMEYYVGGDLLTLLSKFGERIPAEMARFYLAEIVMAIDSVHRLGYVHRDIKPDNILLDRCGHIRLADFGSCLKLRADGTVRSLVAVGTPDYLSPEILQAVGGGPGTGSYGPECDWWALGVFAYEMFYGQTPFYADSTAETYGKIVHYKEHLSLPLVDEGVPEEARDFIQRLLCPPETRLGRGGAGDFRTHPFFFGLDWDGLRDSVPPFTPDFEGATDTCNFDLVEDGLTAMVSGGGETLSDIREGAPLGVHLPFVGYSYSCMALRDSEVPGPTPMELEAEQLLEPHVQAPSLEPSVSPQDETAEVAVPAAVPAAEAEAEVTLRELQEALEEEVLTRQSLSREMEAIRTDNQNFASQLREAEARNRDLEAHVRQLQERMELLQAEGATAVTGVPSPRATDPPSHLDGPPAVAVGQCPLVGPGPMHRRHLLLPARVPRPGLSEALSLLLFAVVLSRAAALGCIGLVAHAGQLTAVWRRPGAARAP
As to the kind of experiment: Inhibition of human DMPK at 1.82 nM by HotSpot assay relative to control.

The target of test [3] is Protein kinase C eta type (Homo sapiens) (UniProt P24723). As to the kind of experiment: Inhibition of human PKCeta at 1.82 nM by HotSpot assay relative to control.
Test [4] deals with Mitogen-activated protein kinase 14 (Homo sapiens) (UniProt Q16539). As to the kind of experiment: Inhibition of human MAPK14 at 1.82 nM by HotSpot assay relative to control.
Test [5] deals with Tyrosine-protein kinase ABL2 (Homo sapiens) (UniProt P42684). As to the kind of experiment: Inhibition of human ABL2 at 1.82 nM by HotSpot assay relative to control.
Test [6] has as its target RAC-alpha serine/threonine-protein kinase (Homo sapiens) (UniProt P31749). As to the kind of experiment: Inhibition of human AKT1 at 1.82 nM by HotSpot assay relative to control.
In test [7] the target is Mitogen-activated protein kinase 1 (Homo sapiens) (UniProt P28482). As to the kind of experiment: Inhibition of human ERK2 at 1.82 nM by HotSpot assay relative to control.
Test [8] addresses Calcium/calmodulin-dependent protein kinase kinase 2 (Homo sapiens) (UniProt Q96RR4). As to the kind of experiment: Inhibition of human CAMKK2 at 1.82 nM by HotSpot assay relative to control.
Test [9] deals with Serine/threonine-protein kinase PAK 2 (Homo sapiens) (UniProt Q13177). As to the kind of experiment: Inhibition of human PAK2 at 1.82 nM by HotSpot assay relative to control.
The target in test [10] is Protein kinase C beta type (Homo sapiens) (UniProt P05771). As to the kind of experiment: Inhibition of human PKCb1 at 500 nM by HotSpot assay relative to control.
Test [11] concerns the target Tyrosine-protein kinase Lck (Homo sapiens) (UniProt P06239). As to the kind of experiment: Inhibition of human LCK at 18.6 nM by HotSpot assay relative to control.
Test [12] has as its target T2, Ephrin type-A receptor 1 (Homo sapiens) (UniProt P21709).
T2 sequence (whole entry): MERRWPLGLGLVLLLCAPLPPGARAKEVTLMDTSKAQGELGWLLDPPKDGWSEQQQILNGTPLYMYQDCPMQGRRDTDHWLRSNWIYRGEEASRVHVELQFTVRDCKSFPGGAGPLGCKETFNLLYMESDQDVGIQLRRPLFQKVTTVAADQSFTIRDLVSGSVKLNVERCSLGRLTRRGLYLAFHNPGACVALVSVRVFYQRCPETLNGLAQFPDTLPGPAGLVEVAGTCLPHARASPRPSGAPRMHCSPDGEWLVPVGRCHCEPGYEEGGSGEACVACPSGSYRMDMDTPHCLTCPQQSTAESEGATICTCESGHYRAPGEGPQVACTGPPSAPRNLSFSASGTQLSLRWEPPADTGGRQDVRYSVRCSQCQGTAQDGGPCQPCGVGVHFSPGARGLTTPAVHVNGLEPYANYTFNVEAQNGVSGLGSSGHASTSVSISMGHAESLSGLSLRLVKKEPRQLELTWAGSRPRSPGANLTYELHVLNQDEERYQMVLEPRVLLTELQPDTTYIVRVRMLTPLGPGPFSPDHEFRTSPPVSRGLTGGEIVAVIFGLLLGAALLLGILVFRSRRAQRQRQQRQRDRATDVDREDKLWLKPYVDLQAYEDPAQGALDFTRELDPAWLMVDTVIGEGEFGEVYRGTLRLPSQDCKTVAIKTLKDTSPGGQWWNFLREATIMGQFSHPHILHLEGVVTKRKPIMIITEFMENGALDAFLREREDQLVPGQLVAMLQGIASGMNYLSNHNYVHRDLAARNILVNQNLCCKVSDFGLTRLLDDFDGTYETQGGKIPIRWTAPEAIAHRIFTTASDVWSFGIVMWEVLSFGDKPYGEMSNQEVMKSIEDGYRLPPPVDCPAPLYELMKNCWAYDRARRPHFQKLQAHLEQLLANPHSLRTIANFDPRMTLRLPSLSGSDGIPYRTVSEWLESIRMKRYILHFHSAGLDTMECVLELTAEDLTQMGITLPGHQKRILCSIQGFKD
As to the kind of experiment: Inhibition of human EPHA1 at 18.6 nM by HotSpot assay relative to control.

Test [13] addresses Mitogen-activated protein kinase 3 (Homo sapiens) (UniProt P27361). As to the kind of experiment: Inhibition of human ERK1 at 18.6 nM by HotSpot assay relative to control.
Test [14] has as its target Serine/threonine-protein kinase PAK 1 (Homo sapiens) (UniProt Q13153). As to the kind of experiment: Inhibition of human PAK1 at 18.6 nM by HotSpot assay relative to control.
Test [15] concerns the target CDK1/Cyclin A (Homo sapiens) (UniProt P06493+P20248). As to the kind of experiment: Inhibition of human CDK1/cyclin A at 18.6 nM by HotSpot assay relative to control. It counts as protein-complex assay.

Usually inhibition stands for the change of the read-out against control, counted positive when it falls.

Chain of Mitogen-activated protein kinase kinase kinase kinase 4 (Homo sapiens) (O95819 2-1239 limits assumed): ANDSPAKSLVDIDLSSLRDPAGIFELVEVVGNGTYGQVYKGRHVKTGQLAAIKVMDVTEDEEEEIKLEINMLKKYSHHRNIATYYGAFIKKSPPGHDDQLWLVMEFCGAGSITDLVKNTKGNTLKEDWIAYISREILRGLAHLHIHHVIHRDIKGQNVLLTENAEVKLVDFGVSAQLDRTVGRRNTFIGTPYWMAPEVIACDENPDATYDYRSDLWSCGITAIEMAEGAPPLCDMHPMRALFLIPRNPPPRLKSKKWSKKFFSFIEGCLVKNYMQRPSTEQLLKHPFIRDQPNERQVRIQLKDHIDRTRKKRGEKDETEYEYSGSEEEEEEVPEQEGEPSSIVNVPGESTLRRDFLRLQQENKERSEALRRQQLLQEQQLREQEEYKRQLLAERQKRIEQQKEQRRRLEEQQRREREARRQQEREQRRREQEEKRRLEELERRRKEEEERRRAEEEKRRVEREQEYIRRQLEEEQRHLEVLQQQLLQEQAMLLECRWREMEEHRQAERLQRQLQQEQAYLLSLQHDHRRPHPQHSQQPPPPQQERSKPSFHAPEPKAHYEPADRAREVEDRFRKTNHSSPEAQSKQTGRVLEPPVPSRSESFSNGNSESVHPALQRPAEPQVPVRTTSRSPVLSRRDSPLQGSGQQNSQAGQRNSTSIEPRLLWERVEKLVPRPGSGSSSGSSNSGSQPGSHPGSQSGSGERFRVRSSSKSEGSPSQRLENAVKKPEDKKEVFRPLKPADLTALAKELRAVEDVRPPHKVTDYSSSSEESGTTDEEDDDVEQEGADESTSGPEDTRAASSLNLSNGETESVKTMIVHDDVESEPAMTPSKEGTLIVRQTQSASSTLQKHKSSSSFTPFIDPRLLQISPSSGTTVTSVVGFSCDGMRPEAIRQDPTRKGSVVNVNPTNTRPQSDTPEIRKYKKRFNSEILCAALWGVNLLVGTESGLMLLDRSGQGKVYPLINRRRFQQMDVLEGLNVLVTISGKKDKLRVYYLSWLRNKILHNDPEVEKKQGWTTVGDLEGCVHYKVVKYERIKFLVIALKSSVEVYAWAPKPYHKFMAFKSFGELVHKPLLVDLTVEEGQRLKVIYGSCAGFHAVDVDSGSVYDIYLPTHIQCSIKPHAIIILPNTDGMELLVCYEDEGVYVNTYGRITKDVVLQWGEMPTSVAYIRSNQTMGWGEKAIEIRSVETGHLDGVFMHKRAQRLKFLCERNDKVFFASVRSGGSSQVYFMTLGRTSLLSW
Chain of Serine/threonine-protein kinase PAK 2 (Homo sapiens) (Q13177 whole entry): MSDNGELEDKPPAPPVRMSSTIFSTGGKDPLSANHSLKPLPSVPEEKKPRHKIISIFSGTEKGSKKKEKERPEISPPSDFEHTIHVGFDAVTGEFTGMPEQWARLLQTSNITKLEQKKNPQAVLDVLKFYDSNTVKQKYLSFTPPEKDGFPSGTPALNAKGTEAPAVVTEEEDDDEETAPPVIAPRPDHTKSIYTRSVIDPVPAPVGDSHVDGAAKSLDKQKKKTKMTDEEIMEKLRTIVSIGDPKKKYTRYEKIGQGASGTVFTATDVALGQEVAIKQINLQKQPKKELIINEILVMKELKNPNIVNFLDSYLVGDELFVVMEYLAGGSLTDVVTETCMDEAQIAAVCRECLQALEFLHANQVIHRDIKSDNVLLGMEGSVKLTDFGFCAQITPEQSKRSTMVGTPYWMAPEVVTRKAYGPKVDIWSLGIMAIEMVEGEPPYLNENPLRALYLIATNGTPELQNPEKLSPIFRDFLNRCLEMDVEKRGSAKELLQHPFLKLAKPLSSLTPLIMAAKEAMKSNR
Chain of Mitogen-activated protein kinase 1 (Homo sapiens) (P28482 whole entry): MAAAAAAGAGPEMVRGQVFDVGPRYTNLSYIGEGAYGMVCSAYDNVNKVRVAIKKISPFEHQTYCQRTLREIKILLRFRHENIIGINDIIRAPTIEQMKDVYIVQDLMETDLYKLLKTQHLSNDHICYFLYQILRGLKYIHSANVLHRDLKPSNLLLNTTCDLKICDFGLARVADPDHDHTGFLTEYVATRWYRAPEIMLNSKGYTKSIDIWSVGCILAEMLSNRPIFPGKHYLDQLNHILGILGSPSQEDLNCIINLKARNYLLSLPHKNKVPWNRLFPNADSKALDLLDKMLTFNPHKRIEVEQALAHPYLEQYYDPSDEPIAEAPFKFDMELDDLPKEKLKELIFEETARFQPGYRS
Chain of Mitogen-activated protein kinase 14 (Homo sapiens) (Q16539 whole entry): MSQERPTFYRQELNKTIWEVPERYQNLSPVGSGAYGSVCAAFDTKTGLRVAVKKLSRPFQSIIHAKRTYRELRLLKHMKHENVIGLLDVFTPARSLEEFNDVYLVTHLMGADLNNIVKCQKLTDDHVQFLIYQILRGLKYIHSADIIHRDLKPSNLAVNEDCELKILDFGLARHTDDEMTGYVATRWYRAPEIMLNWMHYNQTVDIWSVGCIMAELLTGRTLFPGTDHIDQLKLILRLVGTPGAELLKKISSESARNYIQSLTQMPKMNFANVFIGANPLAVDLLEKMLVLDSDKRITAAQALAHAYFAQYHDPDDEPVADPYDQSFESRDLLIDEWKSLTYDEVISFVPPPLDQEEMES
Chain of Calcium/calmodulin-dependent protein kinase kinase 2 (Homo sapiens) (Q96RR4 2-588 limits assumed): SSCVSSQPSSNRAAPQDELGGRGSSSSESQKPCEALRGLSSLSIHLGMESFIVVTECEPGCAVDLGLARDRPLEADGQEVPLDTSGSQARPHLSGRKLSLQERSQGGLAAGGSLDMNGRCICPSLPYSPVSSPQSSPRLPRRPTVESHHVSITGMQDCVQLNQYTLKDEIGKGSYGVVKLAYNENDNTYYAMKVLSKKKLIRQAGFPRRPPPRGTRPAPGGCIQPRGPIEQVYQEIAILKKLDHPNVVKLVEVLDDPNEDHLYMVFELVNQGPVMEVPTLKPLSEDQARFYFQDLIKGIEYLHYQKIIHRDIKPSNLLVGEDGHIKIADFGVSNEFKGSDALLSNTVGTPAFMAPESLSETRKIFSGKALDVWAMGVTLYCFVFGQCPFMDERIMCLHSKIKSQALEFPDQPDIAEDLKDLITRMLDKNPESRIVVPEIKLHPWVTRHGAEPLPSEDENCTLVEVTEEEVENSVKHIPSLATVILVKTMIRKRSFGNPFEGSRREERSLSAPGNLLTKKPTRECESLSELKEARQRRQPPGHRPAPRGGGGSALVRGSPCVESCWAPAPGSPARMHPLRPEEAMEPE
Chain of Tyrosine-protein kinase ABL2 (Homo sapiens) (P42684 whole entry): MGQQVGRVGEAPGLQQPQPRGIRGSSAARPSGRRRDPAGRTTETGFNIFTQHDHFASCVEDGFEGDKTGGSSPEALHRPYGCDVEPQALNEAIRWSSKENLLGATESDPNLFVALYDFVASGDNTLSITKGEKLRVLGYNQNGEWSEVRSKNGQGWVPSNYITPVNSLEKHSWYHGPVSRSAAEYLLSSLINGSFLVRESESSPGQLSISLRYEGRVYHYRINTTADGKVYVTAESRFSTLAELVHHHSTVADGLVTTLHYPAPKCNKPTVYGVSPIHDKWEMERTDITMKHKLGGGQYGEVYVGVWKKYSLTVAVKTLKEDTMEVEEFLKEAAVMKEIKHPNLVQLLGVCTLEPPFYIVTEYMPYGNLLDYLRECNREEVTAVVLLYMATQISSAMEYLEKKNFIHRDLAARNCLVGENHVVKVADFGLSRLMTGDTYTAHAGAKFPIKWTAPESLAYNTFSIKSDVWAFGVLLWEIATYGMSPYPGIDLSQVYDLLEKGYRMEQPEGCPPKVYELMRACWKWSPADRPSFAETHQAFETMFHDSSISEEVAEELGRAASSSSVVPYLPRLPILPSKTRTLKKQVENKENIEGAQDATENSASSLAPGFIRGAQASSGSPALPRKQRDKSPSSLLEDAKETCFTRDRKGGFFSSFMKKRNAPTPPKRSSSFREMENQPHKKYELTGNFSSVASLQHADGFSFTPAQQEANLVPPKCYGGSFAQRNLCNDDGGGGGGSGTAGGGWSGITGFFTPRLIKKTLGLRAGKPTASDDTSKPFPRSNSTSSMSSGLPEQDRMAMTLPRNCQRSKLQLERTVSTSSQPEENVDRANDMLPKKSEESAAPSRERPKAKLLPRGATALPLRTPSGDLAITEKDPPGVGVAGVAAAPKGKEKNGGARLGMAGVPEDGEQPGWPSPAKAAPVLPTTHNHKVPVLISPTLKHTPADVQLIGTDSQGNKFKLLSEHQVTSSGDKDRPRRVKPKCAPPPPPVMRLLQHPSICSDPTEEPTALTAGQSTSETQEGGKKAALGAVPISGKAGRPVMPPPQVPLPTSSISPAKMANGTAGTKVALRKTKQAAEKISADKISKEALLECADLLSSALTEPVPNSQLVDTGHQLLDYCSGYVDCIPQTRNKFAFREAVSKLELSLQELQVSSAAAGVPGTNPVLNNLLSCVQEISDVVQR
Chain of Protein kinase C eta type (Homo sapiens) (P24723 whole entry): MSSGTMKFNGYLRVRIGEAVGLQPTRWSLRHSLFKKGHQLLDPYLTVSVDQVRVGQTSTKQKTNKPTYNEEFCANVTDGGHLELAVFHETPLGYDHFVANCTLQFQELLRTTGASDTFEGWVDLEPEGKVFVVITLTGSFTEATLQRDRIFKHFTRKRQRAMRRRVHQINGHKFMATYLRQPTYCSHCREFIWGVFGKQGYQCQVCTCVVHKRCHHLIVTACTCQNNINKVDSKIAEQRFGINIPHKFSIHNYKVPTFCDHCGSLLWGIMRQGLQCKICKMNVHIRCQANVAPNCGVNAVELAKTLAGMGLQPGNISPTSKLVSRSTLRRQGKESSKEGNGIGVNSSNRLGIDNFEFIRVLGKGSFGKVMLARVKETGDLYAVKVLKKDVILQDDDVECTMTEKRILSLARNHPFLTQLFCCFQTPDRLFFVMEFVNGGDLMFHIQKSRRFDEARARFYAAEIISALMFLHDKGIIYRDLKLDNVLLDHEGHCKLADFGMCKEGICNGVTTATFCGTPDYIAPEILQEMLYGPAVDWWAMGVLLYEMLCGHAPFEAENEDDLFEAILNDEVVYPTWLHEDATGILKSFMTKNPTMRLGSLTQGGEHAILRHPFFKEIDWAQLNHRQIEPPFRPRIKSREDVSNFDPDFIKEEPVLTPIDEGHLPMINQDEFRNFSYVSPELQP

For `C[C@@]1(C(=O)Nc2ccc(F)nc2)CCCN1c1nc(Nc2cc(C3CC3)n[nH]2)c2cccn2n1`, the inhibition in test [1] was -4.23%; in [2], 2.2%; in [3], -0.87%; in [4] it was -2.94%; in test [5], -4.72%; in test [6] it was 1.89%. The inhibition in [7] was -3.61%; in [8], 26.5%; in test [9], -8.78%.
Consider `Nc1n[nH]c2nnc(-c3c(-c4ccccc4)nn4ccccc34)cc12`, for which the inhibition in test [10] amounted to 3.54%.
In the case of `C[C@]1(O)C[C@@H](c2nc(-c3ccc4ccc(-c5ccccc5)nc4c3)c3c(N)nccn32)C1`, the inhibition in test [11] was 6.33%; in test [12] it was -4.97%; in [13] it was -9.66%; in test [14] it was -0.8%; in [15], 1.16%.

Source of the values: ChEMBL document CHEMBL5653615 (J Biol Chem, 2013).
